| Structure (SMILES) | melting point |
| --- | --- |
| CCCCCCN(Cc1ccccc1)Cc1nc(-c2ccc(-c3ccccc3)cc2)c[nH]1 | 120 to 122 °C |
| O=C1NCCCC1Cc1ccccc1 (stereo not drawn) | 120 to 123 °C |
| O=C(NC1CCc2c[nH]cc2C1)[C@@H]1CCCN1C(=O)[C@@H](CC1CCCCC1)NS(=O)(=O)Cc1ccccc1 (stereo partly drawn) | 106 to 109 °C |
| CCOC(=O)C(C#N)=C(Nc1ccc(N(CC)CC)cc1)SC | 100 °C |
| CCCc1c2nc(C(=O)OC)cc(N)c2cc2c(=O)cc(C(=O)OCC)oc12 | 267 to 270 °C |
| Cn1c(C(F)(F)F)cc(=O)n(-c2c(F)cc(Cl)c3nc(C(C)(C)C)oc23)c1=O | 68 to 70 °C |
| CC(C)(C)OC(=O)NCCCCNc1c([N+](=O)[O-])cnc2cccnc12 | 137 to 138 °C |
| C#CCN1C=CC(c2c(O)cc(C(C)C(C)CCCCC)cc2OC)CC1 (stereo not drawn) | 113 to 115 °C |
| CCS(=O)CC(=O)Nc1c(C)cccc1C (stereo not drawn) | 114 to 115 °C |
| O=S(=O)(c1ccccc1)C1C2CCC(C2)C1Br (stereo not drawn) | 108 to 110 °C |
| Cc1cc2c(c(C)c1C)C(=O)C(C)(C)O2 | 77 to 78 °C |
| CS(=O)(=O)Nc1ccc(OCCCN2CCC(OC(c3ccccc3)c3ccccc3)CC2)cc1 | 41 to 43 °C |
| c1ccc(C2CN=C3NCCN32)cc1 (stereo not drawn) | 167 to 170 °C |
| c1ccc(-c2cccc(N(c3ccccc3)c3ccc4c(c3)Oc3ccc(N(c5ccccc5)c5cccc(-c6ccccc6)c5)cc3O4)c2)cc1 | 232 °C |
| O=C(O)CCNC(=O)[C@H](Cc1ccc(-c2ccccc2)cc1)NCP(=O)(Oc1ccccc1)Oc1ccccc1 | 102 °C |
| CC(C)(C)OC(=O)C(CN)CC(=O)N1CCNCC1 (stereo not drawn) | 142 °C |

The next lines start with the values.

| melting point | Structure (SMILES) |
| --- | --- |
| 95 to 99 °C | Cn1nc(CO)cc1-c1ccccc1 |
| 140 to 144 °C | O=C(CC1(c2ccccc2)CCCC1)C(=O)Nc1ccc2c(c1)COC2=O |
| 170 °C | CCCC(Oc1ccc2c(-c3ccc(Cl)cc3)noc2c1)C(=O)O (stereo not drawn) |
| 187 to 189 °C | CCCCc1nc2c(N)nc3cc(-c4ccc(OC)cc4OC)ccc3c2n1CC(C)C |
| 155 to 156 °C | CC(C)c1cccc(CO)c1NC(=O)CC1c2ccccc2Oc2ccccc21 |
| 90 to 96 °C | COc1ccc(Oc2c(Cl)cc(-n3ncc(=O)[nH]c3=O)cc2Cl)cc1NS(=O)(=O)c1ccc(F)cc1 |
| 234 to 236 °C | N#Cc1ccc2c(c1)Sc1ccc([N+](=O)[O-])cc1C=C2 |
| 106 to 107 °C | OCc1cc2cc(OCc3ccccc3)ccc2[nH]1 |
| 159 to 162 °C | CC(C)(C)NC(=O)c1nn(-c2ccc(Cl)cc2)c2c1[C@@H]1CC[C@H]2C1 |
| 195 to 197 °C | Cc1cc(NN)c2ccccc2n1 |
| 195 to 196 °C | COc1ccc2c(c1)C(=O)c1c-2cnc2ccccc12 |
| 188 to 191 °C | COc1ccc(Nc2cc(-c3ccccc3)nc(N3CCC(O)CC3)n2)cc1Cl |
| 142 °C | CC1OC(N2CC(C)(I)C(=O)NC2=O)CC1O[Si](c1ccccc1)(c1ccccc1)C(C)(C)C (stereo not drawn) |
| 66.4 to 69.7 °C | N#CCc1cccc2c1C=CN(C(=O)c1ccccc1)C2C#N (stereo not drawn) |
| 184 to 185 °C | O=C1c2ccccc2C(=O)N1CC(=O)N1Cc2ccccc2Oc2ccc(Cl)cc21 |
| 118 to 121 °C | C=C(c1ccc(-c2nnc(N)s2)cc1)C(O)(Cn1cncn1)c1ccc(F)cc1F (stereo not drawn) |
| 185 to 187 °C | Cn1c(SSc2c(C(=O)Nc3ccccc3)c3cc(O)ccc3n2C)c(C(=O)Nc2ccccc2)c2cc(O)ccc21 |
| 161 to 163 °C | CCCOc1ccc(-c2c(Cl)ncn2-c2ccc(S(C)(=O)=O)cc2)cc1 |
| 135 °C | CC(=O)OC1CSC(Oc2cccc(-c3cncc(F)c3)c2)C(OC(C)=O)C1OC(C)=O (stereo not drawn) |
| 167 to 168 °C | Fc1ccc2c(CN3CCN(c4ccc(Cl)cc4)CC3)n[nH]c2c1F |
| 76 to 79 °C | O=C(c1ccccc1Cl)c1ccccc1[N+](=O)[O-] |
| 169 to 170 °C | COc1cc(-c2csc(C(=N)NO)n2)cc(Cl)c1OC |
